Results reported in the NIST ThermoML archive (doi:10.1021/je900756g).

Conditions: Liquid; for mass density: Bellows volumetry; for vapor or sublimation pressure: Closed cell (Static) method

F/C=C/C(F)(F)F [trans-1,3,3,3-tetrafluoropropene]
mass density [kg/m3]
Conditions	310 K	320 K	330 K	340 K	350 K	360 K	370 K
2000 kPa	1130.2	1093.3	1054.2	1008.1	953.6	–	–
3000 kPa	1136.3	1100.9	1063.6	1021	972.3	910.5	821.5
4000 kPa	1142.1	1108	1072.2	1032.2	987.6	934.2	867.6
5000 kPa	1147.7	1114.7	1080	1042.4	1000.5	952.9	896.7

Conditions	vapor or sublimation pressure [kPa]
310 K	703
320 K	920
330 K	1183
340 K	1500
350 K	1876
360 K	2320
370 K	2841
380 K	3458
